“And” between values parts separate entries of the source, which are not always exact repeats. Equal values may be shown once. Inconclusive results and toxic doses are left out. No stated cut-off is given here; in the data, active means T/C of 150% or more; inactive means T/C below 125%.
Test system: L1210 leukemia ip in BDF1 mice, survival T/C
Assay: NCI In Vivo Anticancer Drug Screen. Data for tumor model L1210 Leukemia (intraperitoneal) in B6D2F1 (BDF1) mice
Conditions: endpoint: mean survival time, higher = longer survival
How it was run: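 Read-out is survival time, reported as the treated-group measurement over the vehicle-control measurement.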

[1] = dose: 50.0 mg/kg/injection, schedule: Q01DX009 (ip), vehicle: saline with Tween-80
[2] = dose: 100.0 mg/kg/injection, schedule: Q01DX009 (ip), vehicle: saline with Tween-80
[3] = dose: 200.0 mg/kg/injection, schedule: Q01DX009 (ip), vehicle: saline with Tween-80
[4] = dose: 100.0 mg/kg/injection, schedule: Q04DX002 (ip), vehicle: saline
[5] = dose: 200.0 mg/kg/injection, schedule: Q04DX002 (ip), vehicle: saline
[6] = dose: 100.0 mg/kg/injection, schedule: Q01DX001 (ip), vehicle: saline
[7] = dose: 100.0 mg/kg/injection, schedule: Q04DX003 (ip), vehicle: saline
[8] = dose: 200.0 mg/kg/injection, schedule: Q01DX001 (ip), vehicle: saline
[9] = dose: 200.0 mg/kg/injection, schedule: Q04DX003 (ip), vehicle: saline
[10] = dose: 400.0 mg/kg/injection, schedule: Q01DX001 (ip), vehicle: saline
[11] = dose: 400.0 mg/kg/injection, schedule: Q04DX003 (ip), vehicle: saline
[12] = dose: 100.0 mg/kg/injection, schedule: Q04DX003 (ip), vehicle: saline with Tween-80
[13] = dose: 200.0 mg/kg/injection, schedule: Q04DX003 (ip), vehicle: saline with Tween-80
[14] = dose: 400.0 mg/kg/injection, schedule: Q04DX003 (ip), vehicle: saline with Tween-80
[15] = dose: 50.0 mg/kg/injection, schedule: Q01DX009 (ip), vehicle: saline
[16] = dose: 100.0 mg/kg/injection, schedule: Q01DX009 (ip), vehicle: saline
[17] = dose: 100.0 mg/kg/injection, schedule: Q01DX009 (ip), vehicle: Klucel (hydroxypropylcellulose) (HPC)
[18] = dose: 100.0 mg/kg/injection, schedule: Q04DX003 (ip), vehicle: Klucel (hydroxypropylcellulose) (HPC)
[19] = dose: 200.0 mg/kg/injection, schedule: Q01DX009 (ip), vehicle: Klucel (hydroxypropylcellulose) (HPC)
[20] = dose: 200.0 mg/kg/injection, schedule: Q04DX003 (ip), vehicle: Klucel (hydroxypropylcellulose) (HPC)
[21] = dose: 400.0 mg/kg/injection, schedule: Q04DX003 (ip), vehicle: Klucel (hydroxypropylcellulose) (HPC)
[22] = dose: 400.0 mg/kg/injection, schedule: Q01DX009 (ip), vehicle: Klucel (hydroxypropylcellulose) (HPC)

Measured: T/C

O=C(Nc1ccc(C(=O)c2ccccc2)cc1)Nc1ccc(C(=O)c2ccccc2)cc1
inactive: dose: 20.0 mg/kg/injection, schedule: Q01DX009 (ip), vehicle: saline with Tween-80 95 % of control | dose: 40.0 mg/kg/injection, schedule: Q01DX009 (ip), vehicle: saline with Tween-80 87 % of control | dose: 80.0 mg/kg/injection, schedule: Q01DX009 (ip), vehicle: saline with Tween-80 90 % of control | dose: 160.0 mg/kg/injection, schedule: Q01DX009 (ip), vehicle: saline with Tween-80 91 % of control | dose: 320.0 mg/kg/injection, schedule: Q01DX009 (ip), vehicle: saline with Tween-80 93 % of control

COC(=O)CCC(OC(C)=O)C(=O)c1ccccc1 (stereo unspecified)
inactive: [1] 91 % of control | [2] 94 % of control | [3] 88 % of control

CCOC1OC(C2COC(=O)O2)C(O)C1O (stereo unspecified)
inactive: [4] 100 % of control | [5] 100 % of control and 104 % of control | dose: 400.0 mg/kg/injection, schedule: Q04DX002 (ip), vehicle: saline 100 % of control | dose: 800.0 mg/kg/injection, schedule: Q04DX002 (ip), vehicle: saline 100 % of control

CC(=O)O/N=C(\C)C12CCCCC1C(O)CCC2 (stereo unspecified)
inactive: [6] 91 % of control | [7] 94 % of control | [8] 91 % of control | [9] 101 % of control | [10] 91 % of control | [11] 104 % of control

CCOC(=O)N1C2CC=CCC1C1(c3ccccc3)OC2(c2ccccc2)c2ccccc21
inactive: dose: 100.0 mg/kg/injection, schedule: Q04DX002 (ip), vehicle: DMSO 96 % of control

CCOC=Nc1c(C)c[n+]([O-])nc1OC
inactive: dose: 12.5 mg/kg/injection, schedule: Q04DX002 (ip), vehicle: saline 102 % of control | dose: 25.0 mg/kg/injection, schedule: Q04DX002 (ip), vehicle: saline 102 % of control | dose: 50.0 mg/kg/injection, schedule: Q04DX002 (ip), vehicle: saline 98 % of control

COc1ccc2c(cc1=O)CC=CC1CC(OC)C(OC)C(OC)C21 (stereo unspecified)
inactive: [12] 92 % of control | [13] 93 % of control | [14] 101 % of control

CC(C)n1cc2c(N)ncnc2n1
inactive: [15] 117 % of control | [6] 96 % of control | [16] 104 % of control | [7] 103 % of control | [8] 104 % of control | [9] 108 % of control | [10] 100 % of control | [11] 100 % of control

O=C(Nc1cccc(C(F)(F)F)c1)c1ccc(C(=O)Nc2cccc(C(F)(F)F)c2)cc1
inactive: [12] 95 % of control | [13] 90 % of control | dose: 400.0 mg/kg/injection, schedule: Q01DX009 (ip), vehicle: saline with Tween-80 96 % of control | [14] 95 % of control

NC(=S)c1c(N)ncn1C1OC(CO)C(O)C1O (stereo unspecified)
inactive: dose: 100.0 mg/kg/injection, schedule: Q01DX005 (ip), vehicle: saline 92 % of control | dose: 200.0 mg/kg/injection, schedule: Q01DX005 (ip), vehicle: saline 90 % of control

CCCCOP(=O)(CCl)OCCCC
inactive: [17] 98 % of control | [18] 97 % of control | [19] 103 % of control | [20] 97 % of control | [21] 95 % of control

CC1OCOC2COCOC2C1O (stereo unspecified)
inactive: [17] 92 % of control | [19] 94 % of control | [22] 97 % of control

CC(=O)Nc1ccc2c(c1)-c1ccccc1C2=O
inactive: [12] 98 % of control | [13] 100 % of control | [14] 98 % of control

Clc1ccccc1CC12CCCCC1N2 (stereo unspecified)
inactive: [18] 103 % of control | [20] 90 % of control | [21] 103 % of control

O=C(O)/C=C\C(=O)NNC(=O)/C=C\C(=O)O
inactive: [1] 101 % of control | [15] 100 % of control | [2] 96 % of control | [16] 100 % of control | [3] 104 % of control | dose: 200.0 mg/kg/injection, schedule: Q01DX009 (ip), vehicle: saline 93 % of control

NC(=O)C(c1ccccc1)N1CCOCC1 (stereo unspecified)
inactive: dose: 50.0 mg/kg/injection, schedule: Q04DX003 (ip), vehicle: saline 106 % of control | [7] 102 % of control | [9] 104 % of control | [11] 102 % of control

OC1CNCCc2ccccc21 (stereo unspecified)
inactive: dose: 25.0 mg/kg/injection, schedule: Q01DX009 (ip), vehicle: Klucel (hydroxypropylcellulose) (HPC) 102 % of control | dose: 50.0 mg/kg/injection, schedule: Q01DX009 (ip), vehicle: Klucel (hydroxypropylcellulose) (HPC) 103 % of control | [17] 94 % of control | [18] 92 % of control | [20] 88 % of control

CCOC(=O)Nc1cccc(C)c1C
inactive: [17] 100 % of control | [19] 107 % of control | [22] 104 % of control

O=C(NCCc1c[nH]c2ccccc12)C(=O)NCCc1c[nH]c2ccccc12
inactive: [18] 108 % of control | [20] 93 % of control | [21] 93 % of control

CC(=O)OCC1OC(C(N)=O)C(OC(C)=O)C1OC(C)=O (stereo unspecified)
inactive: dose: 100.0 mg/kg/injection, schedule: Q01DX001 (ip), vehicle: other 102 % of control | [12] 93 % of control | dose: 200.0 mg/kg/injection, schedule: Q01DX001 (ip), vehicle: other 98 % of control | [13] 104 % of control | dose: 400.0 mg/kg/injection, schedule: Q01DX001 (ip), vehicle: other 98 % of control | [14] 98 % of control

CSc1ncnc2c1ncn2N(CC1CO1)C(C)=O (stereo unspecified)
inactive: dose: 100.0 mg/kg/injection, schedule: Q04DX002 (ip), vehicle: saline with Tween-80 91 % of control | dose: 200.0 mg/kg/injection, schedule: Q04DX002 (ip), vehicle: saline with Tween-80 91 % of control | dose: 400.0 mg/kg/injection, schedule: Q04DX002 (ip), vehicle: saline with Tween-80 95 % of control

Nc1ccc2cc(S(=O)(=O)O)cc(S(=O)(=O)O)c2c1
inactive: [4] 95 % of control | [5] 102 % of control

COc1ccc(C)cc1NC(=S)NC(=O)c1cc([N+](=O)[O-])cc([N+](=O)[O-])c1
inactive: [17] 97 % of control | [18] 95 % of control | [19] 90 % of control | [20] 100 % of control | [22] 95 % of control | [21] 97 % of control

CCOC(=O)/C(C#N)=C1\C=C(NCc2ccccc2)CCC1
inactive: [6] 89 % of control | [8] 96 % of control | [10] 92 % of control

C=C1C(=O)OC2CC3(C)OC3C3OC3C3=CC(OC3=O)C12 (stereo unspecified)
inactive: dose: 5.0 mg/kg/injection, schedule: Q01DX001 (ip), vehicle: carboxymethylcellulose (CMC) 112 % of control

CCOC(=O)CC(=Nc1ccccc1OC)C(=O)OCC
inactive: [17] 97 % of control | [18] 105 % of control | [19] 98 % of control | [20] 98 % of control | [22] 91 % of control | [21] 107 % of control
